Source: patent US20230265151A1, “GIP/GLP1 CO-AGONIST COMPOUNDS” (priority 2020, published 2023)
Read-outs that look alike come from different tables or passages of the source. Each block holds one molecule with its values, some of them ahead of it. *1 amine or outer side, *2 acyl side, *3 side chain or, on linkers, in order; H or OH if unused. Where a SMILES comes first, the peptide text is derived from it. Side-chain parts run from the residue outwards. [ ]: non-standard residue; d: D form. The star is where a group is joined. αMePhe(2-F) = C[C@](N)(Cc1ccccc1F)C(=O)O; γGlu = O=C(O)[C@H](CCC(=O)[*:2])N[*:1]; C14 diacid = O=C(O)CCCCCCCCCCCCC(=O)*; αMeY = C[C@](N)(Cc1ccc(O)cc1)C(=O)O; 4Pal = N[C@@H](Cc1ccncc1)C(=O)O; αMeL = CC(C)C[C@](C)(N)C(=O)O; Orn = NCCC[C@H](N)C(=O)O; AEEA = NCCOCCOCC(=O)O; Aib = CC(C)(N)C(=O)O

Columns and labels:
Format in all cases: cell-based
hGIPR = target: T1, hGIPR (Homo sapiens, UniProt P48546); test: Functional cAMP formation (HTRF) in HEK-293 clonal cells expressing hGIPR, 0.1% bovine casein, without or with 1.0% human serum albumin; conditions: for EC50: geometric mean
T1 construct: expressed in transfected cells
T1 sequence (P48546 22-466): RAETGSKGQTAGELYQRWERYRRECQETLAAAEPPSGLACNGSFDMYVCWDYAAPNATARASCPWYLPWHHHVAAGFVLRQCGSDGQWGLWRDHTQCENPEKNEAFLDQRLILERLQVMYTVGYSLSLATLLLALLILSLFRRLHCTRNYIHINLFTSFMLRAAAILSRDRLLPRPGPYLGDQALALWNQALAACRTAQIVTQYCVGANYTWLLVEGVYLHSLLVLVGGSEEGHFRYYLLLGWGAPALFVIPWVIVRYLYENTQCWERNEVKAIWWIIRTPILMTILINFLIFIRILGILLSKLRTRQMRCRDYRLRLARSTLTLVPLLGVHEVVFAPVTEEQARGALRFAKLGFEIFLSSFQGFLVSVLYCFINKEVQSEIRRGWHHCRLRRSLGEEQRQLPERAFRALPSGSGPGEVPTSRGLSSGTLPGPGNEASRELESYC
Method in brief: (§1)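 Cells were stimulated with peptide for 30 min at 37° C, then intracellular cAMP was measured by competitive HTRF (665/620 nm ratio) and converted to nM using a cAMP standard curve. Relative EC50 and Emax came from four-parameter logistic fits of percent maximal response against peptide concentration.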

hGCGR = target: T2, hGCGR (Homo sapiens, UniProt P47871); test: Functional cAMP formation (HTRF) in HEK-293 clonal cells expressing hGCGR, 0.1% bovine casein, without or with 1.0% human serum albumin; conditions: geometric mean
T2 construct: expressed in transfected cells
T2 sequence (P47871 26-477): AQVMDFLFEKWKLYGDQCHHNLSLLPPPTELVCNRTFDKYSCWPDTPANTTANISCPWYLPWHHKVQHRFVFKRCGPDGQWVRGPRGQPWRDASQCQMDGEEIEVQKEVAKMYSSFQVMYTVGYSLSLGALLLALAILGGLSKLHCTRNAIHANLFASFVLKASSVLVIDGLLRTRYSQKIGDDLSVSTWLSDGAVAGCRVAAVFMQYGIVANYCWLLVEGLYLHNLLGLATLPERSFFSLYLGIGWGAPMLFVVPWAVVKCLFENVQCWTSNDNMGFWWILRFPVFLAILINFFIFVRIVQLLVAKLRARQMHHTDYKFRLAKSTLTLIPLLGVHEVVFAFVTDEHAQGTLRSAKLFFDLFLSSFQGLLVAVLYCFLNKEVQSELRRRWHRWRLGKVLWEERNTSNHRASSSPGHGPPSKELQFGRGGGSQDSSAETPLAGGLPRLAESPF
Method in brief: as §1

hGLP-1R = hGLP-1R (Homo sapiens, UniProt P43220); test: Functional cAMP formation (HTRF) in HEK-293 clonal cells expressing hGLP-1R, 0.1% bovine casein, without or with 1.0% human serum albumin; parameters: expressed in transfected cells; conditions: for Emax: read-out: hGLP-1R Emax, % ± SEM; for EC50: geometric mean
Chain of hGLP-1R (P43220 24-463): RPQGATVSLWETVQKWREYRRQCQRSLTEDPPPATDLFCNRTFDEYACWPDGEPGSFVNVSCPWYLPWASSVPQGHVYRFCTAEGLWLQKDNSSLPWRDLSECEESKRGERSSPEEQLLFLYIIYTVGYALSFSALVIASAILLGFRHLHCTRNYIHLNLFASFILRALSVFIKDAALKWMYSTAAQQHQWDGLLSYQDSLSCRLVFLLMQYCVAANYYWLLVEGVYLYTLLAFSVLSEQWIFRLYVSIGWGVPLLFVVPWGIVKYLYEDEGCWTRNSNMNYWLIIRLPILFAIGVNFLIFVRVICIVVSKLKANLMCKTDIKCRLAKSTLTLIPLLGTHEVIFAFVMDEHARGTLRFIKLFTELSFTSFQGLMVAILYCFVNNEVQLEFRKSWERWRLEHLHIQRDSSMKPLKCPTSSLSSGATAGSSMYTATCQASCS
Method in brief: as §1

[1] = 0.1% bovine casein and 1.0% human serum albumin, 37° C., read-out: hGIPR EC50, nM (SEM, n)
[2] = HEK293, 0.1% bovine casein and 1.0% human serum albumin, 37° C., percent of maximal response to GIP(1-42)NH2, read-out: hGIPR Emax, % ± SEM
[3] = cAMP, 37° C., 0.1% bovine casein (no human serum albumin), read-out: hGIPR EC50, nM (SEM, n)
[4] = 0.1% bovine casein and 1.0% human serum albumin, 37° C., read-out: hGCGR EC50, nM (SEM, n)
[5] = cAMP, 37° C., 0.1% bovine casein (no human serum albumin), read-out: hGCGR EC50, nM (SEM, n)
[6] = HEK293, 0.1% bovine casein and 1.0% human serum albumin, 37° C., percent of maximal response to GLP-1(7-36)NH2

SMILES: CCCCCCCCCCCC(=O)N[C@@H](CCC(=O)NCCOCCOCC(=O)NCCOCCOCC(=O)NCCCC[C@H](NC(=O)[C@H](CCCN)NC(=O)[C@H](CC(=O)O)NC(=O)[C@H](CC(C)C)NC(=O)[C@](C)(CC(C)C)NC(=O)[C@@H](NC(=O)C(C)(C)NC(=O)[C@H](Cc1ccc(O)cc1)NC(=O)[C@H](CC(=O)O)NC(=O)[C@H](CO)NC(=O)[C@@H](NC(=O)[C@](C)(Cc1ccccc1F)NC(=O)[C@@H](NC(=O)CNC(=O)[C@H](CCC(=O)O)NC(=O)C(C)(C)NC(=O)[C@@H](N)Cc1ccc(O)cc1)[C@@H](C)O)[C@@H](C)O)[C@@H](C)CC)C(=O)N[C@@H](C)C(=O)N[C@@H](CCC(N)=O)C(=O)NC(C)(C)C(=O)N[C@@H](CCCCNC(=O)COCCOCCNC(=O)COCCOCCNC(=O)CC[C@H](NC(=O)CCCCCCCCCCC)C(=O)O)C(=O)N[C@@H](Cc1ccccc1)C(=O)N[C@H](C(=O)N[C@H](CCC(=O)O)C(=O)N[C@@](C)(Cc1ccc(O)cc1)C(=O)N[C@@H](CC(C)C)C(=O)N[C@H](C(=O)N[C@@H](CCC(=O)O)C(=O)NCC(=O)NCC(=O)N1CCC[C@H]1C(=O)N[C@@H](CO)C(=O)N[C@@H](CO)C(=O)NCC(=O)N[C@@H](C)C(=O)N1CCC[C@H]1C(=O)N1CCC[C@H]1C(=O)N1CCC[C@H]1C(=O)N[C@@H](CO)C(N)=O)[C@@H](C)CC)[C@@H](C)CC)C(=O)O [Example 300]
EC50 (hGIPR; [1]): 1.25 nM | Emax (hGIPR; [2]): 91.5% | EC50 (hGIPR; [3]): 0.0128 nM | EC50 (hGCGR; [4]): > 9950 nM | EC50 (hGCGR; [5]): > 9950 nM | Emax (hGLP-1R; [6]): 109% | EC50 (hGLP-1R; cAMP, 37° C., 0.1% bovine casein (no human serum albumin), read-out: hGLP-1R EC50, nM (SEM, n)): 0.194 nM

SMILES: CC[C@H](C)[C@H](NC(=O)[C@H](CCCN)NC(=O)[C@H](CC(=O)O)NC(=O)[C@H](CC(C)C)NC(=O)[C@](C)(CC(C)C)NC(=O)[C@@H](NC(=O)[C@H](CO)NC(=O)[C@H](Cc1ccncc1)NC(=O)[C@H](CC(=O)O)NC(=O)[C@H](CO)NC(=O)[C@@H](NC(=O)[C@](C)(Cc1ccccc1F)NC(=O)[C@@H](NC(=O)CNC(=O)[C@H](CCC(=O)O)NC(=O)C(C)(C)NC(=O)[C@@H](N)Cc1ccc(O)cc1)[C@@H](C)O)[C@@H](C)O)[C@@H](C)CC)C(=O)N[C@@H](C)C(=O)N[C@@H](CCC(N)=O)C(=O)NC(C)(C)C(=O)N[C@@H](CCCCNC(=O)COCCOCCNC(=O)COCCOCCNC(=O)CC[C@H](NC(=O)CCCCCCCCCCCCC(=O)O)C(=O)O)C(=O)N[C@@H](Cc1ccccc1)C(=O)N[C@H](C(=O)N[C@@H](CCCCNC(=O)COCCOCCNC(=O)COCCOCCNC(=O)CC[C@H](NC(=O)CCCCCCCCCCCCC(=O)O)C(=O)O)C(=O)N[C@@](C)(Cc1ccc(O)cc1)C(=O)N[C@@H](CC(C)C)C(=O)N[C@H](C(=O)N[C@@H](CCC(=O)O)C(=O)NCC(=O)NCC(=O)N1CCC[C@H]1C(=O)N[C@@H](CO)C(=O)N[C@@H](CO)C(=O)NCC(=O)N[C@@H](C)C(=O)N1CCC[C@H]1C(=O)N1CCC[C@H]1C(=O)N1CCC[C@H]1C(=O)N[C@@H](CO)C(N)=O)[C@@H](C)CC)[C@@H](C)CC [Example 69]
Emax (hGIPR; HEK293, read-out: hGIPR Emax, % ± SEM, 0.1% bovine casein and 1.0% human serum albumin, 37° C., percent of maximal response to GIP(1-42)NH2): 86.8% | Emax (hGIPR; HEK293, read-out: hGIPR Emax, % ± SEM, percent of maximal response to GIP(1-42)NH2, 37° C., 0.1% bovine casein, arithmetic mean): 99 ± 2.43% | EC50 (hGIPR; hGIPR EC50, nM (SEM, n), 0.1% bovine casein and 1.0% human serum albumin, 37° C.): 2.32 nM | EC50 (hGIPR; hGIPR EC50, nM (SEM, n), cAMP, incubated at 37° C., 0.1% bovine casein (no human serum albumin)): 0.0265 nM | EC50 (hGCGR; hGCGR EC50, nM (SEM, n), 0.1% bovine casein and 1.0% human serum albumin, 37° C.): > 9950 nM | EC50 (hGCGR; hGCGR EC50, nM (SEM, n), cAMP, incubated at 37° C., 0.1% bovine casein (no human serum albumin)): > 9950 nM | EC50 (hGLP-1R; hGLP-1R EC50, nM (SEM, n), 0.1% bovine casein and 1.0% human serum albumin, 37° C.): 18.9 nM

SMILES: CC[C@H](C)[C@H](NC(=O)[C@H](CCCN)NC(=O)[C@H](CC(=O)O)NC(=O)[C@H](CC(C)C)NC(=O)[C@](C)(CC(C)C)NC(=O)[C@@H](NC(=O)[C@H](CO)NC(=O)[C@H](Cc1ccc2ccccc2c1)NC(=O)[C@H](CC(=O)O)NC(=O)[C@H](CO)NC(=O)[C@@H](NC(=O)[C@](C)(Cc1ccccc1F)NC(=O)[C@@H](NC(=O)CNC(=O)[C@H](CCC(=O)O)NC(=O)C(C)(C)NC(=O)[C@@H](N)Cc1ccc(O)cc1)[C@@H](C)O)[C@@H](C)O)[C@@H](C)CC)C(=O)N[C@@H](C)C(=O)N[C@@H](CCC(N)=O)C(=O)NC(C)(C)C(=O)N[C@@H](CCCCNC(=O)COCCOCCNC(=O)COCCOCCNC(=O)CCCCCCCCCCCCC(=O)O)C(=O)N[C@@H](Cc1ccccc1)C(=O)N[C@H](C(=O)N[C@H](CCC(=O)O)C(=O)N[C@@](C)(Cc1ccc(O)cc1)C(=O)N[C@@H](CC(C)C)C(=O)N[C@H](C(=O)N[C@@H](CCC(=O)O)C(=O)NCC(=O)NCC(=O)N1CCC[C@H]1C(=O)N[C@@H](CO)C(=O)N[C@@H](CO)C(=O)NCC(=O)N[C@@H](C)C(=O)N1CCC[C@H]1C(=O)N1CCC[C@H]1C(=O)N1CCC[C@H]1C(=O)N[C@@H](CO)C(=O)N[C@@H](CCCCNC(=O)COCCOCCNC(=O)COCCOCCNC(=O)CCCCCCCCCCCCC(=O)O)C(N)=O)[C@@H](C)CC)[C@@H](C)CC [Example 258]
Emax (hGIPR; HEK293, cAMP, 37° C., 0.1% bovine casein, percent of maximal response to GIP(1-42)NH2, arithmetic mean, read-out: hGIPR Emax, % ± SEM): 90.3% | EC50 (hGIPR; [3]): 0.0473 nM | EC50 (hGCGR; [4]): > 9950 nM | EC50 (hGCGR; [5]): > 9950 nM | Emax (hGLP-1R; HEK293, cAMP, 37° C., 0.1% bovine casein, percent of maximal response to GLP-1(7-36)NH2, arithmetic mean): 94.9%

EC50 (hGIPR; [1]): 1.55 nM | Emax (hGIPR; [2]): 82.8 ± 3.36% | Emax (hGIPR; HEK293, percent of maximal response to GIP(1-42)NH2, 37° C., 0.1% bovine casein, arithmetic mean, read-out: hGIPR Emax, % ± SEM): 94.5 ± 0.611% | EC50 (hGIPR; cAMP, incubated at 37° C., 0.1% bovine casein (no human serum albumin), read-out: hGIPR EC50, nM (SEM, n)): 0.024 nM | EC50 (hGCGR; [4]): > 9950 nM | EC50 (hGCGR; cAMP, incubated at 37° C., 0.1% bovine casein (no human serum albumin), read-out: hGCGR EC50, nM (SEM, n)): > 9950 nM | EC50 (hGLP-1R; 0.1% bovine casein and 1.0% human serum albumin, 37° C., read-out: hGLP-1R EC50, nM (SEM, n)): 28.9 nM | Emax (hGLP-1R; [6]): 112 ± 8.5% | Emax (hGLP-1R; HEK293, percent of maximal response to GLP-1(7-36)NH2, 37° C., 0.1% bovine casein, arithmetic mean): 98.9 ± 4.64% | EC50 (hGLP-1R; cAMP, incubated at 37° C., 0.1% bovine casein (no human serum albumin), read-out: hGLP-1R EC50, nM (SEM, n)): 0.303 nM
SMILES: CC[C@H](C)[C@H](NC(=O)[C@H](CC(C)C)NC(=O)[C@](C)(Cc1ccc(O)cc1)NC(=O)[C@H](CCCCNC(=O)COCCOCCNC(=O)COCCOCCNC(=O)CC[C@H](NC(=O)CCCCCCCCCCCCC(=O)O)C(=O)O)NC(=O)[C@@H](NC(=O)[C@H](Cc1ccccc1)NC(=O)[C@H](CCC(=O)O)NC(=O)C(C)(C)NC(=O)[C@H](CCC(N)=O)NC(=O)[C@H](C)NC(=O)[C@H](CCCCNC(=O)COCCOCCNC(=O)COCCOCCNC(=O)CC[C@H](NC(=O)CCCCCCCCCCCCC(=O)O)C(=O)O)NC(=O)[C@H](CCCN)NC(=O)[C@H](CC(=O)O)NC(=O)[C@H](CC(C)C)NC(=O)[C@](C)(CC(C)C)NC(=O)[C@@H](NC(=O)[C@H](CO)NC(=O)[C@H](Cc1ccncc1)NC(=O)[C@H](CC(=O)O)NC(=O)[C@H](CO)NC(=O)[C@@H](NC(=O)[C@](C)(Cc1ccccc1F)NC(=O)[C@@H](NC(=O)CNC(=O)[C@H](CCC(=O)O)NC(=O)C(C)(C)NC(=O)[C@@H](N)Cc1ccc(O)cc1)[C@@H](C)O)[C@@H](C)O)[C@@H](C)CC)[C@@H](C)CC)C(=O)N[C@@H](CCC(=O)O)C(=O)NCC(=O)N[C@@H](CCCN)C(N)=O [Example 190] (H-Y[Aib]EGT[αMePhe(2-F)]TSD[4Pal]SI[αMeL]LD[Orn]K([AEEA-AEEA-γGlu-C14 diacid])AQ[Aib]EFIK([AEEA-AEEA-γGlu-C14 diacid])[αMeY]LIEG[Orn]-NH2; N-terminus assumed)
